Where “and” joins values, the source holds several entries; their conditions need not be identical. Equal values may be shown once. Inconclusive results and toxic doses are left out.
System: BDF1 mice, B16 melanoma ip, median survival T/C
Test: NCI In Vivo Anticancer Drug Screen. Data for tumor model B16 Melanoma (intraperitoneal) in B6D2F1 (BDF1) mice
Details: endpoint: median survival time, higher = longer survival
How it was run: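 Read-out: survival or tumor size, given as treated/control ratio. Controls received vehicle only; animals bore transplantable tumors.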

[1] = dose: 12.5 mg/kg/injection, schedule: Q01DX009 (ip), vehicle: saline with Tween-80
[2] = dose: 25.0 mg/kg/injection, schedule: Q01DX009 (ip), vehicle: saline with Tween-80
[3] = dose: 50.0 mg/kg/injection, schedule: Q01DX009 (ip), vehicle: saline with Tween-80
[4] = dose: 100.0 mg/kg/injection, schedule: Q01DX009 (ip), vehicle: saline with Tween-80
[5] = dose: 3.13 mg/kg/injection, schedule: Q01DX009 (ip), vehicle: saline
[6] = dose: 6.25 mg/kg/injection, schedule: Q01DX009 (ip), vehicle: saline
[7] = dose: 100.0 mg/kg/injection, schedule: Q04DX003 (ip), vehicle: saline with Tween-80
[8] = dose: 200.0 mg/kg/injection, schedule: Q01DX009 (ip), vehicle: Klucel (hydroxypropylcellulose) (HPC)
[9] = dose: 400.0 mg/kg/injection, schedule: Q01DX009 (ip), vehicle: Klucel (hydroxypropylcellulose) (HPC)
[10] = dose: 100.0 mg/kg/injection, schedule: Q01DX009 (ip), vehicle: Klucel (hydroxypropylcellulose) (HPC)
[11] = dose: 12.5 mg/kg/injection, schedule: Q01DX009 (ip), vehicle: saline
[12] = dose: 50.0 mg/kg/injection, schedule: Q01DX009 (ip), vehicle: saline
[13] = dose: 100.0 mg/kg/injection, schedule: Q01DX009 (ip), vehicle: saline
[14] = dose: 25.0 mg/kg/injection, schedule: Q04DX003 (ip), vehicle: saline with Tween-80
[15] = dose: 50.0 mg/kg/injection, schedule: Q04DX003 (ip), vehicle: saline with Tween-80
[16] = dose: 25.0 mg/kg/injection, schedule: Q01DX009 (ip), vehicle: saline
[17] = dose: 1.5 mg/kg/injection, schedule: Q01DX009 (ip), vehicle: other
[18] = dose: 50.0 mg/kg/injection, schedule: Q04DX003 (ip), vehicle: saline
[19] = dose: 100.0 mg/kg/injection, schedule: Q04DX003 (ip), vehicle: saline
[20] = dose: 200.0 mg/kg/injection, schedule: Q04DX003 (ip), vehicle: saline

`COC(CBr)c1ccccc1` (centres undefined) was tested, and the T/C (dose: 3.12 mg/kg/injection, schedule: Q01DX009 (ip), vehicle: Klucel (hydroxypropylcellulose) (HPC)) was 102 % of control, the T/C (dose: 6.25 mg/kg/injection, schedule: Q01DX009 (ip), vehicle: Klucel (hydroxypropylcellulose) (HPC)) was 104 % of control and the T/C (dose: 10.0 mg/kg/injection, schedule: Q04DX003 (ip), vehicle: Klucel (hydroxypropylcellulose) (HPC)) was 97 % of control. The T/C (dose: 12.5 mg/kg/injection, schedule: Q01DX009 (ip), vehicle: Klucel (hydroxypropylcellulose) (HPC)) was 92 % of control, the T/C (dose: 20.0 mg/kg/injection, schedule: Q04DX003 (ip), vehicle: Klucel (hydroxypropylcellulose) (HPC)) was 87 % of control and the T/C (dose: 40.0 mg/kg/injection, schedule: Q04DX003 (ip), vehicle: Klucel (hydroxypropylcellulose) (HPC)) was 87 % of control.

For `O=c1ccc2nc3ccccc3sc-2c1`, the T/C [1] was 93 % of control, the T/C [2] was 86 % of control and the T/C [3] was 95 % of control. For the same compound, the T/C [4] was 91 % of control.

`O=C1C(Br)=C(Br)C(=O)C1(Br)Br` was tested, and the T/C (dose: 1.56 mg/kg/injection, schedule: Q01DX009 (ip), vehicle: saline) was 100 % of control, the T/C [5] was 105 % of control and the T/C (dose: 3.13 mg/kg/injection, schedule: Q04DX003 (ip), vehicle: saline with Tween-80) was 94 % of control. For the same compound, the T/C [6] was 102 % of control and the T/C (dose: 6.25 mg/kg/injection, schedule: Q04DX003 (ip), vehicle: saline with Tween-80) was 89 % of control.

For `O=C1OC(COCC#Cc2ccccc2)CN1c1ccccc1` (centres undefined), the T/C (dose: 25.0 mg/kg/injection, schedule: Q01DX009 (ip), vehicle: Klucel (hydroxypropylcellulose) (HPC)) was 97 % of control, the T/C (dose: 50.0 mg/kg/injection, schedule: Q01DX009 (ip), vehicle: Klucel (hydroxypropylcellulose) (HPC)) was 93 % of control and the T/C [7] was 102 % of control. For the same compound, the T/C [8] was 91 % of control, the T/C (dose: 200.0 mg/kg/injection, schedule: Q04DX003 (ip), vehicle: saline with Tween-80) was 105 % of control and the T/C [9] was 91 % of control. The T/C (dose: 400.0 mg/kg/injection, schedule: Q04DX003 (ip), vehicle: saline with Tween-80) was 108 % of control.

With `COc1cccc(N=Cc2ccc(C=Nc3cccc(OC)c3)cc2)c1` the T/C [10] was 107 % of control, the T/C [8] was 96 % of control and the T/C [9] was 96 % of control.

For `CC(=O)O[C@@]1(C)[C@@H](C)C(=O)O[C@@H]2CCN3CC=C(COC(=O)[C@]1(C)O)[C@H]23`, the T/C [11] was 119 % of control, the T/C [12] was 119 % of control and the T/C [13] was 97 % of control.

With `CCOC(=O)C(NC(C)=O)C(=O)OCC` the T/C (dose: 100.0 mg/kg/injection, schedule: Q04DX003 (ip), vehicle: Klucel (hydroxypropylcellulose) (HPC)) was 90 % of control, the T/C (dose: 200.0 mg/kg/injection, schedule: Q04DX003 (ip), vehicle: Klucel (hydroxypropylcellulose) (HPC)) was 102 % of control and the T/C (dose: 400.0 mg/kg/injection, schedule: Q04DX003 (ip), vehicle: Klucel (hydroxypropylcellulose) (HPC)) was 95 % of control.

In the case of `CN1CCc2cc3c(cc2C(=O)Cc2ccc4c(c2C1)OCO4)OCO3`, the T/C [2] is reported as 115 % of control, the T/C [14] is reported as 117 % of control and the T/C [3] is reported as 112 % of control. For the same compound, the T/C [15] was 114 % of control, the T/C [4] was 105 % of control and the T/C [7] was 94 % of control.

`Cc1cc(C)[nH]c(=O)n1` was tested, and the T/C [16] was 115 % of control, the T/C [12] was 101 % of control and the T/C [13] was 102 % of control.

`Nc1nc(Cl)c2[nH]cnc2n1` was tested, and the T/C (dose: 0.09 mg/kg/injection, schedule: Q01DX009 (ip), vehicle: other) was 114 % of control, the T/C (dose: 0.19 mg/kg/injection, schedule: Q01DX009 (ip), vehicle: other) was 113 % of control and the T/C (dose: 0.38 mg/kg/injection, schedule: Q01DX009 (ip), vehicle: other) was 105 % of control. The T/C (dose: 0.75 mg/kg/injection, schedule: Q01DX009 (ip), vehicle: other) was 88 % of control and 111 % of control, the T/C [17] was 110 % of control and the T/C (dose: 3.0 mg/kg/injection, schedule: Q01DX009 (ip), vehicle: other) was 101 % of control and 108 % of control. The T/C (dose: 6.0 mg/kg/injection, schedule: Q01DX009 (ip), vehicle: other) was 89 % of control and the T/C (dose: 50.0 mg/kg/injection, schedule: Q01DX009 (ip), vehicle: other) was 93 % of control.

With `O=S(=O)(Nc1ccccc1)c1ccc(C2CC3(Cl)C(Cl)=C(Cl)C2(Cl)C3(Cl)Cl)cc1` (centres undefined) the T/C [10] was 100 % of control and the T/C [8] was 87 % of control.

In the case of `CC(C)C(O)(C(=O)NN)C(=O)NN`, the T/C [18] is reported as 91 % of control, the T/C [19] is reported as 96 % of control and the T/C [20] is reported as 117 % of control.

In the case of `CCCCCCCCCCCCCCCCCC[N+](C)(C)c1nc(Cl)nc(Cl)n1`, the T/C (dose: 3.13 mg/kg/injection, schedule: Q01DX009 (ip), vehicle: other) is reported as 98 % of control, the T/C (dose: 6.25 mg/kg/injection, schedule: Q01DX009 (ip), vehicle: other) is reported as 100 % of control and the T/C (dose: 12.5 mg/kg/injection, schedule: Q01DX009 (ip), vehicle: other) is reported as 99 % of control.

With `C[NH-].C[NH-].O=C(O)CC(=O)O.[Pt+2]` the T/C [18] was 108 % of control, the T/C [19] was 162 % of control and the T/C [20] was 165 % of control.

`N=[N+]=CC(=O)OCC(N)C(=O)O` (centres undefined) was tested, and the T/C [17] was 100 % of control, the T/C [5] was 100 % of control and the T/C (dose: 5.0 mg/kg/injection, schedule: Q04DX003 (ip), vehicle: water) was 102 % of control. For the same compound, the T/C [6] was 102 % of control, the T/C (dose: 10.0 mg/kg/injection, schedule: Q04DX003 (ip), vehicle: other) was 100 % of control and the T/C [11] was 105 % of control. For the same compound, the T/C (dose: 15.0 mg/kg/injection, schedule: Q04DX003 (ip), vehicle: water) was 115 % of control, the T/C (dose: 20.0 mg/kg/injection, schedule: Q04DX003 (ip), vehicle: other) was 100 % of control and the T/C (dose: 375.0 micrograms/kg/injection, schedule: Q01DX009 (ip), vehicle: water) was 118 % of control. For the same compound, the T/C (dose: 750.0 micrograms/kg/injection, schedule: Q01DX009 (ip), vehicle: water) was 107 % of control.

For `COP12(OCCO1)SC(C(F)(F)F)=C(C(F)(F)F)S2`, the T/C [1] was 100 % of control and the T/C [2] was 104 % of control.

`CCOC(=O)C1(C(=O)OCC)COC(=O)C1` was tested, and the T/C (dose: 16.0 mg/kg/injection, schedule: Q01DX009 (ip), vehicle: saline with Tween-80) was 101 % of control, the T/C (dose: 32.0 mg/kg/injection, schedule: Q01DX009 (ip), vehicle: saline with Tween-80) was 101 % of control and the T/C (dose: 64.0 mg/kg/injection, schedule: Q01DX009 (ip), vehicle: saline with Tween-80) was 101 % of control. For the same compound, the T/C (dose: 128.0 mg/kg/injection, schedule: Q01DX009 (ip), vehicle: saline with Tween-80) was 104 % of control and the T/C (dose: 256.0 mg/kg/injection, schedule: Q01DX009 (ip), vehicle: saline with Tween-80) was 97 % of control.

For `CCCCCCCCCCN1CCC(N2CCCCC2)CC1`, the T/C [11] was 91 % of control, the T/C [16] was 93 % of control and the T/C [12] was 98 % of control. The T/C [13] was 87 % of control.

For `CC1C(=O)OCC2=CCN3CCC(OC(=O)C(C)C1(C)O)C23` (centres undefined), the T/C (dose: 5.0 mg/kg/injection, schedule: Q01DX009 (ip), vehicle: saline) was 109 % of control, the T/C (dose: 10.0 mg/kg/injection, schedule: Q01DX009 (ip), vehicle: saline) was 111 % of control and the T/C [11] was 123 % of control. The T/C (dose: 20.0 mg/kg/injection, schedule: Q01DX009 (ip), vehicle: saline) was 111 % of control, the T/C [16] was 121 % of control and the T/C (dose: 40.0 mg/kg/injection, schedule: Q01DX009 (ip), vehicle: saline) was 109 % of control. The T/C [12] was 121 % of control.

In the case of `CNC=O`, the T/C [13] is reported as 99 % of control and the T/C (dose: 200.0 mg/kg/injection, schedule: Q01DX009 (ip), vehicle: saline) is reported as 110 % of control.

`CC(C)NC(=O)c1ccc(N/N=[N+](/C)[O-])cc1` was tested, and the T/C [2] was 121 % of control, the T/C [3] was 107 % of control and the T/C [4] was 93 % of control and 111 % of control.

In the case of `COc1ccc(N=C(N)NC#N)cc1`, the T/C [10] is reported as 105 % of control and the T/C [8] is reported as 99 % of control.

In the case of `C/C=C/C=C1/OC(C)=C(C(C)=O)C1=O`, the T/C [1] is reported as 102 % of control and 111 % of control, the T/C [2] is reported as 102 % of control and the T/C [3] is reported as 102 % of control and 110 % of control. The T/C [4] was 96 % of control and 109 % of control, the T/C (dose: 200.0 mg/kg/injection, schedule: Q01DX009 (ip), vehicle: saline with Tween-80) was 104 % of control and the T/C (dose: 400.0 mg/kg/injection, schedule: Q01DX009 (ip), vehicle: saline with Tween-80) was 98 % of control.

With `CCCC(C)C/C(C)=C/C(C)(C)C(CC(=O)N1CCOCC1)C(=O)O` (centres undefined) the T/C [1] was 100 % of control, the T/C [2] was 92 % of control and the T/C [14] was 92 % of control. The T/C [15] was 92 % of control.

Reference: PubChem BioAssay AID192 (DTP/NCI, 2004)
